Activity data for 2 compounds are collected here from ChEMBL document CHEMBL4265871, “Novel alkylated azoles as potent antifungals” (Eur J Med Chem, 2017).

Series [1] concerns BEAS-2B. The experiment in a line: Toxicity in human BEAS2B cells assessed as reduction in cell viability up to 7.8 ug/ml incubated for 24 hrs by resazurin dye based assay. Background: Alamar Blue is a resazurin reagent that responds to reducing activity.
Series [2] deals with Candida albicans. The experiment in a line: Fungicidal activity against Candida albicans ATCC 10231 assessed as reduction in microbial growth at 4 times MIC incubated for 6 hrs by time kill assay. Format: functional.
Series [3] relates to Candida albicans. The experiment in a line: Effect on sterol composition in Candida albicans ATCC 10231 assessed as eburicol level at 0.125 ug/mL incubated for […] by GC-MS analysis.
The subject of series [4] is Candida albicans. The experiment in a line: Effect on sterol composition in Candida albicans ATCC 10231 assessed as lanosterol level at 0.125 ug/mL incubated for 10 mins by GC-MS analysis (reference value: 4.17%).
Series [5] concerns Candida albicans. The experiment in a line: Effect on sterol composition in Candida albicans ATCC 64124 assessed as lanosterol level at 1.95 ug/mL incubated for 10 mins by LC-MS analysis (reference value: 29.38%).
Series [6] relates to Candida albicans. The experiment in a line: Effect on sterol composition in Candida albicans ATCC 10231 assessed as ergosterol level at 0.125 ug/mL incubated for 10 mins by GC-MS analysis (reference value: 91.15%).
Series [7] concerns Candida albicans. The experiment in a line: Effect on sterol composition in Candida albicans ATCC 64124 assessed as unknown sterol level at 1.95 ug/mL incubated for 10 mins by LC-MS analysis (reference value: 2.67 to 6.98%).
The test system of series [8] is Candida albicans. The experiment in a line: Effect on sterol composition in Candida albicans ATCC 10231 assessed as 14-alpha-methyl-ergosta-8,24(28)dien-3beta,6alpha-diol level at 0.125 ug/mL incubated for […] by GC-MS analysis.

Take `CCCCCCCCC(O)(Cn1cncn1)c1ccc(F)cc1F` (stereo not drawn): in series [1], the Activity result was “Non-Toxic”.

On to `CCCCCCC(O)(Cn1cncn1)c1ccc(Cl)cc1Cl` (stereo not drawn), for which the Activity in series [2] is 1.25 log10CFU; in series [3], 2.93%; in series [4] it was 19.3%; in series [5] it was 28.99%; in series [6], 49%; in series [7], 4.25 - 13.04%. The Activity in series [8] is recorded as 18.81%.
